In EPA's ToxRefDB 2:

How the values were obtained:
rat [1] = conditions: Sub-acute repeat dose toxicity, sprague dawley, Oral, Feed, dose end: 14 day, group: systemic
rat [2] = conditions: Sub-acute repeat dose toxicity, sprague dawley, Oral, Gavage/Intubation, dose end: 30 day, group: systemic
dog [3] = conditions: Sub-acute repeat dose toxicity; beagle; Oral; Gavage/Intubation; dose end: 10 day; group: systemic; systemic / in life observation / clinical signs / abnormal feces + systemic / in life observation / clinical signs / salivation + systemic…
dog [4] = conditions: Sub-acute repeat dose toxicity; beagle; Oral; Gavage/Intubation; dose end: 30 day; group: systemic; systemic / clinical chemistry / potassium / potassium + systemic / in life observation / clinical signs / emesis + systemic / in life …
rabbit [5] = conditions: Prenatal developmental toxicity study, Oral, Gavage/Intubation, dose end: 19 GD
dog [6] = conditions: Chronic toxicity; beagle; Oral; Gavage/Intubation; dose end: 364 day; group: systemic; systemic / in life observation / body weight / body weight + systemic / in life observation / clinical signs / arrhythmia + systemic / in …
mouse = conditions: Sub-acute repeat dose toxicity, Oral, Feed, dose end: 14 day, group: systemic
rat [7] = conditions: Fertility (Segment I), sprague dawley, Oral, Gavage/Intubation, dose end: 1 generation, group: parental
rat [8] = conditions: Chronic toxicity; sprague dawley; Oral; Gavage/Intubation; dose end: 182 day; group: systemic; systemic / clinical chemistry / glucose / glucose + systemic / clinical chemistry / triglycerides / triglycerides + systemic / in life …
rat [9] = conditions: Sub-acute repeat dose toxicity, sprague dawley, Oral, Gavage/Intubation, dose end: 14 day, group: systemic
rabbit [10] = conditions: Sub-acute repeat dose toxicity; new zealand white; Oral; Gavage/Intubation; dose end: 5 day; group: systemic; systemic / in life observation / body weight / body weight + systemic / in life observation / food consumption / food consumption
rat [11] = conditions: Fertility (Segment I), sprague dawley, Oral, Gavage/Intubation, dose end: 1 generation, group: parental; remark: listed apart in the source
[12] = systemic / in life observation / food consumption / food consumption + systemic / in life observation / body weight / body weight
[13] = systemic / in life observation / food consumption / food consumption + systemic / in life observation / body weight / body weight + systemic…
[14] = systemic / clinical chemistry / 5' nucleotidase / 5' nucleotidase + systemic / clinical chemistry / [other] / [other] + systemic / clinical …
[15] = group: developmental, developmental / developmental malformation / bone / delayed ossification + systemic / in life observation / body weight / fetal weight
[16] = group: maternal, systemic / in life observation / body weight / body weight gain + systemic / in life observation / food consumption / food consumption
[17] = systemic / in life observation / body weight / body weight + systemic / in life observation / body weight / body weight gain + systemic / in…
[18] = systemic / in life observation / body weight / body weight + systemic / in life observation / clinical signs / salivation + systemic / in …
[19] = systemic / in life observation / body weight / body weight + systemic / in life observation / food consumption / food consumption
[20] = systemic / hematology / erythrocyte (rbc) count differential / erythrocyte (rbc) + systemic / hematology / hematocrit (hct) / hematocrit (…
[21] = systemic / in life observation / clinical signs / salivation

O=C(Cc1ccc(Cl)c(Cl)c1)N(O)[C@H](CN1CC[C@H](O)C1)c1ccccc1
LEL (rat [1]; [12]): 1 mg/kg/day | NEL (rat [1]; [12]): < 1 mg/kg/day | LOAEL (rat [1]; [13]): > 300 mg/kg/day | NOAEL (rat [1]; [13]): ≥ 300 mg/kg/day | LOAEL (rat [2]; [14]): > 150 mg/kg/day | NOAEL (rat [2]; [14]): ≥ 150 mg/kg/day | NEL (rat [2]; systemic / clinical chemistry / [other] / [other] + systemic / clinical chemistry / albumin / albumin + systemic / clinical chemistry / …): 1 mg/kg/day | LEL (dog [3]): 1 mg/kg/day | LOAEL (dog [3]): > 1 mg/kg/day | NEL (dog [3]): < 1 mg/kg/day | NOAEL (dog [3]): ≥ 1 mg/kg/day | LOAEL (dog [4]): > 1 mg/kg/day | NOAEL (dog [4]): ≥ 1 mg/kg/day | LOAEL (rabbit [5]; [15]): > 5 mg/kg/day | NOAEL (rabbit [5]; [15]): ≥ 5 mg/kg/day | LOAEL (rabbit [5]; [16]): > 5 mg/kg/day | NOAEL (rabbit [5]; [16]): ≥ 5 mg/kg/day | LEL (dog [6]): 1 mg/kg/day | LOAEL (dog [6]): > 1 mg/kg/day | NEL (dog [6]): < 1 mg/kg/day | NOAEL (dog [6]): ≥ 1 mg/kg/day | LOAEL (mouse; [17]): > 1000 mg/kg/day | NOAEL (mouse; [17]): ≥ 1000 mg/kg/day | LEL (mouse; systemic / in life observation / clinical signs / hunched posture): 300 mg/kg/day | LOAEL (rat [7]; [18]): > 50 mg/kg/day | NEL (rat [7]; [18]): 1 mg/kg/day | NOAEL (rat [7]; [18]): ≥ 50 mg/kg/day | LEL (rat [7]; [19]): 10 mg/kg/day | LOAEL (rat [8]): > 150 mg/kg/day | NEL (rat [8]): 1 mg/kg/day | NOAEL (rat [8]): ≥ 150 mg/kg/day | LOAEL (rat [9]; [20]): > 500 mg/kg/day | NOAEL (rat [9]; [20]): ≥ 500 mg/kg/day | LEL (rat [9]; [21]): 25 mg/kg/day | NEL (rat [9]; [21]): < 25 mg/kg/day | LEL (rabbit [10]): 1 mg/kg/day | LOAEL (rabbit [10]): > 150 mg/kg/day | NEL (rabbit [10]): < 1 mg/kg/day | NOAEL (rabbit [10]): ≥ 150 mg/kg/day | LOAEL (rat [11]; [18]): > 50 mg/kg/day | NEL (rat [11]; [18]): 1 mg/kg/day | NOAEL (rat [11]; [18]): ≥ 50 mg/kg/day | LEL (rat [11]; [19]): 10 mg/kg/day
